Reference: publication PMC5882690, “Mechanical characteristics of beta sheet-forming peptide hydrogels are dependent on peptide sequence, concentration and buffer composition” (Royal Society Open Science, 2018)
Where a SMILES comes first, the peptide text is derived from it.

Experiments:
[1] = SAP hydrogel dissolution in PBS or TYSB medium (peptide content of supernatant); format: physicochemical; settings: 37°C, 20 mg ml^-1 P11-4, 15 mg ml^-1 others, Qubit Protein Assay, mean ± SD, n = 3
Protocol: SAP hydrogel dissolution and degradation properties of the peptides in the presence and absence of neutrophilic elastase and microorganisms were measured by determining the peptide content of the supernatant. Therefore, SAPs were assembled in PBS at concentrations of 20 mg ml^−1 for P11-4 and 15 mg ml^−1 for P11-8, P11-13/14 and P11-28/29. The assay was performed in a 96-well plate with gel volumes of 100 µl well^−1. 86 units ml^−1 elastase (Innovative Research, USA) (100 µg ml^−1) were added to the assembled peptides in PBS solution. After 24 h incubation at 37°C and 5% CO2, 10 µl of the supernatant was sterilely removed after 24 and 168 h and measured indirectly by monomeric peptide concentration in the supernatant using the Qubit® Protein Assay (Q33211; Thermo Fisher; fluorescence at 485/590 nm) and transferred back for the remainder of the experiment allowing peptide hydrogel degradation measurement without disturbing the hydrogel to buffer fluid balance. The measurements are based on the fact that degraded peptides cause disassembly of the fibrils, as assembly rules are no longer given, resulting in an increase in monomeric SAP in solution. SAP concentrations were calculated based on respective peptide standard curves. For data analysis, SAP concentrations measured in the supernatant were calculated as a percentage of the specific starting concentrations of each peptide system. Statistical analysis was done using a two-way ANOVA followed by Sidak's multiple comparison test.
The stability of the hydrogels versus bacterial degradation was tested by the exposure to the bacterial strains Streptococcus mutans (S. mutans), Pseudomonas aeruginosa (P. aeruginosa) and Staphylococcus aureus (S. aureus; all from Leibniz-Institut DSMZ GmbH). Therefore, the bacterial strains were applied (10^6 CFU ml^−1) on the top of each gel (20 mg ml^−1 for P11-4 and 15 mg ml^−1 for P11-8, P11-13/14 and P11-28/29) in their respective media (Neurobasal medium for P. aeruginosa (Thermo Fisher), Tryptic Soy Broth (TYSB) medium for S. mutans and S. aureus). After 1 and 7 days of incubation at 37°C, 10 µl of each supernatant was analysed subsequent to centrifugation of the samples using the Qubit® Protein Assay. Calculations were performed as described previously for the elastase degradation study. Statistical analysis was performed with Graphpad Prism version 6.0 using a two-way ANOVA followed by Dunnett's multiple comparison test.

[2] = Oscillatory amplitude sweep (storage modulus G′ in linear viscoelastic region, yield point); format: physicochemical; settings: for yield point YP / peptide hydrogel stiffness G′ / yield point YP (strain where G′ < 95% of original value): mean ± SD, n = 3; for peptide hydrogel stiffness G′: 140 mM ionic strength, assembled overnight; for peptide hydrogel stiffness G′ / yield point YP (strain where G′ < 95% of original value): 37°C
Protocol: […] The amplitude sweep tests were performed to measure storage moduli (G′) within the linear viscoelastic region. Calculations of the gel breaking points (yield points) were performed with MATLAB depending on the different peptide concentrations. Therefore, the yield strain was defined as the point where G′ is less than 95% of its original value. Oscillatory time sweep experiments were performed to study the gelation speed and hydrogel stiffness. Time sweeps up to 150 min measuring time using a frequency of 1 rad s^−1 and amplitude gamma of 0.05% were used. SAP hydrogel stiffness was determined after the equilibrium of the storage modulus (G′) was reached (t = 100 min). To determine the gelation speed, the slope of increasing storage modulus over time was calculated in the interval from t = 5 to 10 min after placing peptide solutions onto the rheometer.
To study SAP hydrogel stiffness within the linear viscoelastic region and gel breaking points according to the peptide concentrations, unary SAP hydrogels (300 µl) were prepared in vials at concentrations of 15 mg ml^−1, 20 mg ml^−1 and 30 mg ml^−1 by dissolving first the lyophilized peptides in 150 µl of buffer A and then adding 150 µl of peptide-specific Tris–NaCl buffer B according to table 1. Complementary SAP hydrogels (P11-13/14 and P11-28/29) were obtained by dissolving 150 µl of P11-13 in 0.1 M Tris buffer + 0.052 M NaCl pH 8 and 150 µl P11-14 in 0.055 M Tris buffer + 0.096 M NaCl pH 7.2 (table 1). The P11-13 and P11-14 solutions were then mixed (1 : 1) to obtain 300 µl of complementary SAP hydrogel with a final ionic strength of 140 mM and a pH of 7.2. All SAP hydrogels were allowed to assemble overnight.
To study the influence of divalent ions and different media on SAP hydrogel stiffness, gelation speed and gel breaking points (yield points), SAPs were prepared at a concentration of 15 mg ml^−1 in the different media, Tris–NaCl, Tris–MgSO4, DMEM or artificial saliva, according to table 1. All experiments were done at least in duplicate. Statistical evaluation was performed with GRAPHPAD PRISM version 6.0 based on a one-way ANOVA test followed by Tukey's multiple comparison test.

[3] = literature, cited from earlier work
Excerpt: The topographical structure of SAP hydrogels is important for the three-dimensional arrangement of cells within scaffolds. Zhang et al. state that the fibres of SAP hydrogels resemble the nanometre scale of natural polymer networks and thus allow three-dimensional cell growth. […] (figure 1). […] Moreover, they observed the formation fibre entanglements with diameters of 30 nm. The phenomenon of fibril clustering was also reported by Zhang et al. for the peptides KFE8 and KLD12, characterized by a typical single fibre width of 7 nm and thicker diameters for the bundles of fibres.

[4] = 15 mg ml^-1, Tris–NaCl, amplitude sweep
[5] = 20 mg ml^-1, Tris–NaCl, amplitude sweep
[6] = 30 mg ml^-1, Tris–NaCl, amplitude sweep

## CC(=O)N[C@@H](CCC(N)=O)C(=O)N[C@@H](CCC(N)=O)C(=O)N[C@@H](CCCNC(=N)N)C(=O)N[C@@H](Cc1ccccc1)C(=O)N[C@@H](CCC(=O)O)C(=O)N[C@@H](Cc1c[nH]c2ccccc12)C(=O)N[C@@H](CCC(=O)O)C(=O)N[C@@H](Cc1ccccc1)C(=O)N[C@@H](CCC(=O)O)C(=O)N[C@@H](CCC(N)=O)C(=O)N[C@@H](CCC(N)=O)C(N)=O [P11-4, CH3CO-QQRFEWEFEQQ-NH2] (Ac-QQRFEWEFEQQ-NH2)
[1]; Medium (TYSB), 1 d
  relative peptide amount in supernatant (% of peptide starting concentration): 0.4± 0.1%
[1]; Medium (TYSB), 7 d
  relative peptide amount in supernatant (% of peptide starting concentration): 4.6± 2.5%
[1]; PBS, 1 d, gel assembled in PBS, 100 µl, fluorescence 485/590 nm
  relative peptide amount in supernatant (% of peptide starting concentration): 10.6± 5.7%
[1]; PBS, 7 d, gel assembled in PBS, 100 µl, fluorescence 485/590 nm
  relative peptide amount in supernatant (% of peptide starting concentration): 9.4± 4.4%
[2]; 15 mg ml^-1, Tris–MgSO4, amplitude sweep
  yield point YP: 0.05±0.03%
[2]; [4]
  peptide hydrogel stiffness G′: 2.1± 1.0 kPa
  yield point YP (strain where G′ < 95% of original value): 2.3±0.3%
  yield point YP: 0.45± 0.05%
[2]; 15 mg ml^-1, artificial saliva, amplitude sweep up to 100% strain
  yield point YP: 0.3 ± 0.02%
[2]; 15 mg ml^-1, serum-free DMEM, amplitude sweep up to 100% strain
  yield point YP: 2.3 ± 0.44%
[2]; [5]
  peptide hydrogel stiffness G′: 2.4± 0.3 kPa
  yield point YP (strain where G′ < 95% of original value): 1.3±0.3%
[2]; [6]
  peptide hydrogel stiffness G′: 4.6± 1.3 kPa
  yield point YP (strain where G′ < 95% of original value): 1.2±0.7%
[2]; doubling SAP concentration from 15 to 30 mg ml^-1, Tris–NaCl
  factor of increase of SAP hydrogel stiffness: 2
[3]; P11-4 and P11-8 prepared in NaCl
  fibril width: 14 nm
[3]; prepared in NaCl
  diameter of fibre entanglements: 30 nm
